Experimental data reported in patent publication US20210038668A1, “TRADITIONAL CHINESE MEDICINE COMPOSITION FOR PREVENTING AND/OR TREATING ISCHEMIC REPERFUSION INJURY” (TASLY PHARMACEUTICAL GROUP CO., LTD., priority 2018, published 2021).

How the values were obtained:
[1] = tested on: Bax; experiment: Western blotting of Bax, endothelial cells after hypoxia/reoxygenation; type: cell-based; settings: rat brain endothelial cells, hypoxia 4.5 h/reoxygenation 3 h; tPA 20 mcg/ml alone (model group); T541 400 mcg/ml + tPA 20 mcg/ml
Description: (§1) Establishment of rat brain endothelial cell H/R model: rat brain endothelial cells were purchased from ATCC, and then subcultured to 5-6 generations in normal conditions for further experiment. […]

[2] = tested on: Bcl-2; experiment: Western blotting of Bcl-2, endothelial cells after hypoxia/reoxygenation; type: cell-based; settings: rat brain endothelial cells, hypoxia 4.5 h/reoxygenation 3 h; tPA 20 mcg/ml alone (model group); T541 400 mcg/ml + tPA 20 mcg/ml
Description: as §1

[3] = tested on: mice with carotid artery thrombus; experiment: Neurological scoring, 15-score standard, mice; type: in vivo, C57BL/6 mice; settings: 24 hours after administration; normal = 15, dead = 0; tPA 10 mg/kg alone; T541 20 mg/kg, T141 12 mg/kg, T582 15 mg/kg each + tPA 10 mg/kg
Procedure: Neurological scoring was conducted to each group of mice after reperfused for 24 hours based upon scoring standards (15 scores) (Garcia J H et al. Stroke. 1995; 26:627-634.) with slight modification:
Mice capacity of autonomic activity: mice were put into a 25×15 cm cage to record their motion trails within 3 minutes; mice incapable of moving basically were denoted as 0; mice with little activity and not touching any wall of the cage were denoted as 1; mice touching any […] were denoted as 2; mice touching three walls and above were denoted as 3;
Mice limbs symmetry experiment: mice tails were lifted to observe the motion trails of their bodies; mice with completely asymmetric bodies were denoted as 0; mice with almost asymmetrical bodies were denoted as 1; mice with moderately asymmetrical bodies were denoted as 2; mice with almost symmetric bodies were denoted as 3;
Measurement of open field test: free motion of mice was observed; mice without any motion were denoted as 0; mice circling around were denoted as 1; mice tilting to one side to make curvilinear motion were denoted as 2; mice making rectilinear motion were denoted as 3; […]
Mice neurological scoring: a sum of the individual score of the above five experiments is calculated; 15 scores denote normal mice and 0 denote dead mice.

[4] = tested on: Bcl-2; experiment: Western blotting of Bcl-2 in brain tissue; type: in vivo, C57BL/6 mice; settings: brain tissue 24 h after administration, sham = 1.00; tPA 10 mg/kg alone or + T541 20 mg/kg or ingredients at Table 7 doses
Description: To compare the therapeutical effect on reperfusion injury caused by tPA thrombolysis between the traditional Chinese medicinal composition of the present invention and each ingredient (total saponins of Astragalus, the experiment was divided into the following group (tPA is combined with T541, individual ingredient thereof and compatibility of any two ingredients) specifically as follows: tPA+total saponins of Astragalus (tPA+HQ), tPA+ salvianolic acids (tPA+DS), tPA+Panax notoginseng saponins (tPA+SQ), tPA+ total saponins of Astragalus+salvianolic acids (tPA+HQ+DS), tPA+ total saponins of Astragalus+Panax notoginseng saponins (tPA+HQ+SQ), tPA+ salvianolic acids+Panax notoginseng saponins (tPA+DS+SQ) and tPA+T541. Normal saline served as an isovolumetric control. The usage number in each group is 6.
After reperfused for 24 hours, mice were perfused by normal saline; Western blotting analysis was conducted to the penumbra field of infarcted right cerebral cortex. […] Excessive supernatant was taken out and quantified by a BCA protein quantification liquor (ThermoScientific, US) to measure absorbance value at 560 nm of ELIASA and to calculate the protein concentration according to a standard curve. […] The density of electrophoretic strips was analyzed by an image analysis software Quantityone. […]

For “tPA: tissue-type plasminogen activator (tPA) for thrombolysis”, the Bax [1] was 2.44 ± 0.51, the Bax/Bcl-2 [1] was 4.57 ± 0.75 and the Bcl-2 [2] was 0.69 ± 0.12. For the same substance, the “Neurological scoring, 15-score standard” value [3] was 5.82 ± 0.52 and the Bcl-2 [4] was 1.51 ± 0.14.
